The target in this experiment is T1, human SARM1(50-724) (Homo sapiens, UniProt Q6SZW1).
T1 construct: 40 nM human SARM1(50-724)
T1 sequence (Q6SZW1 50-724): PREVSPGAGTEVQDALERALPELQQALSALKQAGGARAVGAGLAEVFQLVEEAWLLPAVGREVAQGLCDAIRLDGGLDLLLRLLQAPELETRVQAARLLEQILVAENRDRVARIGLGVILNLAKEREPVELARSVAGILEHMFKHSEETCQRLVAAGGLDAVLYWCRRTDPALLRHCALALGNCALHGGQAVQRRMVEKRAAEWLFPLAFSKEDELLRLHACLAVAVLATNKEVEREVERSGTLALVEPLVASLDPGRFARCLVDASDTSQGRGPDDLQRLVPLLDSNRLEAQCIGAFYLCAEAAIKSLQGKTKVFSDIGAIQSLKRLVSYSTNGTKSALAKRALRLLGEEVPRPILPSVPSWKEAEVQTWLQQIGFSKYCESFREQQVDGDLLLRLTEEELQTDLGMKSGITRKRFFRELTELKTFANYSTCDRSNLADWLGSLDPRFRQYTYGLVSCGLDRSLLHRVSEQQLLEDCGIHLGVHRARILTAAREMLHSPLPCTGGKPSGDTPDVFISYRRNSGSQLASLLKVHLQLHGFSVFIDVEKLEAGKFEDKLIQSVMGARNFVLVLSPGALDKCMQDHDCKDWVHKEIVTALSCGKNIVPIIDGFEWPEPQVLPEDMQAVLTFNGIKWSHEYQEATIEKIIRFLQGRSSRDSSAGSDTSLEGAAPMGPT
In words: SARM1 NADase biochemical assay (HPLC of NAD and NAM). As to conditions: 40 nM human SARM1(50-724), 0.3 mM NMN, 20 μM NAD, 60 minutes room temperature; dose-response from 100 μM, 1:3 dilution. How it is done:
Each reaction was run at a volume of 20 μL containing 50 μM compound (dissolved in DMSO; final concentration of DMSO is 1% v/v), 40 nM human SARM1(50-724), 0.3 mM NMN, 20 μM NAD, 1 mM TCEP, 25 mM HEPES pH 7.4, 10 mM KCl and 10 mM MgCl2. The reaction was incubated at room temperature for 60 minutes and quenched with 20 μL of 0.4% formic acid. The samples were run on Agilent HPLC 1260 Infinity II with Synergi 2.5 μM Fusion-RP 100 Å (100×3.0 mm) LC column from Phenomenex. Total run time for each sample was 4 minutes. The run was isocratic with 1.5% methanol in 40 mM ammonium acetate pH 6.0. Samples were run at a flow rate of 0.8 mL/min at 55° C. Peak areas of NAD and NAM were determined using OpenLAB CDS (Chem Station edition) software. For dose-response, the compound was diluted serially 1:3 in DMSO and added to the reaction starting at a final compound concentration of 100 μM in 1% DMSO.

The IC50 is the point on the concentration scale where inhibition reaches its midpoint. For the compound `Cc1c(-c2ccncc2)n[nH]c1N(C(=O)CCc1cc(F)c(F)c(F)c1)C(=O)CCc1cc(F)c(F)c(F)c1` [Example 10, N-(4-Methyl-3-(pyridin-4-yl)-1H-pyrazol-5-yl)-3-(3,4,5-trifluorophenyl)-N-(3-(3,4,5-trifluorophenyl)propanoyl)propanamide], the IC50 was less than 1 µM.

Take `Cc1c(-c2ccncc2)n[nH]c1N(C(=O)CCc1ccc(Cl)cc1)C(=O)CCC1CCCC1` [Example 8, 3-(4-Chlorophenyl)-N-(3-cyclopentylpropanoyl)-N-(4-methyl-3-(pyridin-4-yl)-1H-pyrazol-5-yl)propanamide]: the IC50 is less than 1 µM.

In the case of `Cc1c(-c2ccncc2)n[nH]c1NC(=O)CCc1ccc(I)cc1` [Example 46, 3-(4-Iodophenyl)-N-(4-methyl-3-(pyridin-4-yl)-1H-pyrazol-5-yl)propanamide], the IC50 was less than 1 µM.

For `Cc1c(-c2ccncc2)n[nH]c1N(C(=O)CCc1ccc(Cl)cc1)C(=O)C(C)C` [Example 12, 3-(4-Chlorophenyl)-N-isobutyryl-N-(4-methyl-3-(pyridin-4-yl)-1H-pyrazol-5-yl)propanamide], the IC50 is 1 to 10 µM.

Consider `Cc1c(-c2ccncc2)n[nH]c1NC(=O)CCc1ccc(CF)cc1` [Example 56, 3-(4-(Fluoromethyl)phenyl)-N-(4-methyl-3-(pyridin-4-yl)-1H-pyrazol-5-yl)propanamide], for which the IC50 was less than 1 µM.

As to `Cc1c(-c2ccncc2)n[nH]c1NC(=O)CCc1cccc2ccccc12` [Example 29, N-(4-Methyl-3-(pyridin-4-yl)-1H-pyrazol-5-yl)-3-(naphthalen-1-yl)propanamide], the IC50 was 1 to 10 µM.

For the compound `COc1ccc(CCC(=O)Nc2[nH]nc(-c3ccncc3)c2C)cc1` [Example 27, 3-(4-Methoxyphenyl)-N-(4-methyl-3-(pyridin-4-yl)-1H-pyrazol-5-yl)propanamide], the IC50 was 1 to 10 µM.

As for `Cc1c(-c2ccncc2)n[nH]c1NC(=O)CCc1ccc([N+](=O)[O-])cc1` [Example 37, N-(4-Methyl-3-(pyridin-4-yl)-1H-pyrazol-5-yl)-3-(4-nitrophenyl)propanamide], the IC50 was less than 1 µM.

For `Cc1cnccc1-c1n[nH]c(NC(=O)CCc2cc(F)c(Cl)c(F)c2)c1C` [Example 111, 3-(4-Chloro-3,5-difluorophenyl)-N-(4-methyl-3-(3-methylpyridin-4-yl)-1H-pyrazol-5-yl)propanamide], the IC50 was less than 1 µM.

As for `O=C(NCc1ccc(Cl)cc1)Nc1[nH]nc(-c2ccncc2)c1Cl` [Example 168, 1-(4-Chloro-3-(pyridin-4-yl)-1H-pyrazol-5-yl)-3-(4-chlorobenzyl)urea], the IC50 is less than 1 µM.

In the case of `Cc1c(-c2ccncc2)n[nH]c1NC(=O)CCc1cc(Cl)no1` [Example 78, 3-(3-Chloroisoxazol-5-yl)-N-(4-methyl-3-(pyridin-4-yl)-1H-pyrazol-5-yl)propanamide], the IC50 was less than 1 µM.

`Cc1c(-c2ccncc2)n[nH]c1N(C(=O)CCc1cc(F)c(Cl)c(F)c1)C(=O)CCc1cc(F)c(Cl)c(F)c1` [Example 9, 3-(4-Chloro-3,5-difluorophenyl)-N-(3-(4-chloro-3,5-difluorophenyl)propanoyl)-N-(4-methyl-3-(pyridin-4-yl)-1H-pyrazol-5-yl)propanamide]: the IC50 is less than 1 µM.

As for `Cc1c(-c2ccncc2)n[nH]c1N(C(=O)CCc1ccc(Cl)cc1)C(=O)CCc1cccc(Cl)c1` [Example 4, 3-(3-Chlorophenyl)-N-(3-(4-chlorophenyl)propanoyl)-N-(4-methyl-3-(pyridin-4-yl)-1H-pyrazol-5-yl)propanamide], the IC50 was less than 1 µM.

Consider `Cc1c(-c2ccncc2)n[nH]c1N1C(=O)CC(Cc2ccc(Cl)cc2)C1=O` (racemic) [Example 154, (rac)-3-(4-Chlorobenzyl)-1-(4-methyl-3-(pyridin-4-yl)-1H-pyrazol-5-yl)pyrrolidine-2,5-dione], for which the IC50 lay within 1 to 10 µM.

As for `N#Cc1ccc(CCC(=O)Nc2cnn(-c3ccncc3)c2Cl)cc1F` [Example 94, N-(5-Chloro-1-(pyridin-4-yl)-1H-pyrazol-4-yl)-3-(4-cyano-3-fluorophenyl)propanamide], the IC50 is less than 1 µM.

Turning to `Cc1c(-c2ccncc2)n[nH]c1N(C(=O)CCc1ccccc1)C(=O)CCc1ccc(Cl)cc1` [Example 6, 3-(4-Chlorophenyl)-N-(4-methyl-3-(pyridin-4-yl)-1H-pyrazol-5-yl)-N-(3-phenylpropanoyl)propanamide], the IC50 was less than 1 µM.

Take `CCc1c(-c2ccncc2)n[nH]c1NC(=O)CCc1ccc(Cl)s1` [Example 17]: the IC50 was less than 1 µM.

`Cc1c(-c2ccncc2)n[nH]c1NC(=O)CCc1ccc(F)c(F)c1` [Example 44, 3-(3,4-Difluorophenyl)-N-(4-methyl-3-(pyridin-4-yl)-1H-pyrazol-5-yl)propanamide]: the IC50 was less than 1 µM.

Take `COc1c(-c2ccncc2)n[nH]c1NC(=O)CCc1ccc(Cl)cc1` [Example 122, 3-(4-Chlorophenyl)-N-(4-methoxy-3-(pyridin-4-yl)-1H-pyrazol-5-yl)propanamide]: the IC50 was less than 1 µM.

For `O=C1CC(Cc2ccc(Cl)cc2)C(=O)N1c1cc(-c2ccncc2)n[nH]1` (racemic) [Example 156, (rac)-3-(4-Chlorobenzyl)-1-(3-(pyridin-4-yl)-1H-pyrazol-5-yl)pyrrolidine-2,5-dione], the IC50 is less than 1 µM.

Turning to `Cc1cc(Cl)ccc1CCC(=O)Nc1[nH]nc(-c2ccncc2)c1C` [Example 42, 3-(4-Chloro-2-methylphenyl)-N-(4-methyl-3-(pyridin-4-yl)-1H-pyrazol-5-yl)propanamide], the IC50 was less than 1 µM.

On to `Cc1c(-c2ccncc2)n[nH]c1NC(=O)CCc1cnc(F)nc1` [Example 60, 3-(2-Fluoropyrimidin-5-yl)-N-(4-methyl-3-(pyridin-4-yl)-1H-pyrazol-5-yl)propanamide], for which the IC50 is less than 1 µM.

Take `Cc1c(-c2ccncc2)n[nH]c1NC(=O)CCc1ccc(Cl)c(F)c1` [Example 64, 3-(4-Chloro-3-fluorophenyl)-N-(4-methyl-3-(pyridin-4-yl)-1H-pyrazol-5-yl)propanamide]: the IC50 is less than 1 µM.

`Cc1cnccc1-c1n[nH]c(NC(=O)CCc2cc(F)c(C#N)c(F)c2)c1C` [Example 113]: the IC50 fell in the range of 1 to 10 µM.

Turning to `Cc1c(-c2ccncc2)n[nH]c1NC(=O)CCc1cc(Cl)cc(Cl)c1` [Example 21, 3-(3,5-Dichlorophenyl)-N-(4-methyl-3-(pyridin-4-yl)-1H-pyrazol-5-yl)propanamide], the IC50 fell in the range of 1 to 10 µM.

Consider `Cc1c(-c2ccncc2)n[nH]c1NC(=O)CCc1ccc(Cl)c(Cl)c1` [Example 31, 3-(3,4-Dichlorophenyl)-N-(4-methyl-3-(pyridin-4-yl)-1H-pyrazol-5-yl)propanamide], for which the IC50 was less than 1 µM.

Consider `O=C(NCc1ccc(Cl)cc1)Nc1cc(-c2ccncc2)n[nH]1` [Example 165, 1-(4-Chlorobenzyl)-3-(3-(pyridin-4-yl)-1H-pyrazol-5-yl)urea], for which the IC50 was less than 1 µM.

As for `Cc1c(NC(=O)CCc2ccc(Cl)nc2)cnn1-c1ccncc1` [Example 82], the IC50 is less than 1 µM.

In the case of `Cc1c(-c2ccncc2)n[nH]c1NC(=O)CCc1cnc(Cl)nc1` [Example 61, 3-(2-Chloropyrimidin-5-yl)-N-(4-methyl-3-(pyridin-4-yl)-1H-pyrazol-5-yl)propanamide], the IC50 is less than 1 µM.

On to `Cc1c(-c2ccncc2)n[nH]c1NC(=O)CCc1ccc(Cl)cc1` [Example 19, 3-(4-Chlorophenyl)-N-(4-methyl-3-(pyridin-4-yl)-1H-pyrazol-5-yl)propanamide], for which the IC50 was less than 1 µM.

As to `Cc1c(-c2ccncc2)n[nH]c1N(C(=O)CCc1ccc(Cl)cc1)C(=O)CCC(C)C` [Example 7, N-(3-(4-Chlorophenyl)propanoyl)-4-methyl-N-(4-methyl-3-(pyridin-4-yl)-1H-pyrazol-5-yl)pentanamide], the IC50 lay in the range of 1 to 10 µM.

As for `O=C(CCc1ccc(Cl)cc1)Nc1cc(-c2ccncc2F)n[nH]1` [Example 170, 3-(4-Chlorophenyl)-N-(3-(3-fluoropyridin-4-yl)-1H-pyrazol-5-yl)propanamide], the IC50 is less than 1 µM.

On to `Cc1c(NC(=O)CSc2ccc(Cl)cc2)cnn1-c1ccncc1` [Example 81, 2-((4-Chlorophenyl)thio)-N-(5-methyl-1-(pyridin-4-yl)-1H-pyrazol-4-yl)acetamide], for which the IC50 is less than 1 µM.

(Values after patent publication US12404265B2, “Substituted pyridine derivatives as SARM1 inhibitors” (Nura Bio, Inc., priority 2020, dated 2025).)
